{
  "source": "patent US20100137358A1",
  "about": "“SOLIFENACIN COMPOSITIONS” (DR. REDDY'S LABORATORIES LTD., priority 1996, published 2010)",
  "test": "Storage stability of amorphous solifenacin succinate and premix compositions, purity and impurities by HPLC",
  "type": "physicochemical",
  "conditions": "triple laminated package, nitrogen atmosphere",
  "protocol": "The spray-dried product was packaged in a triple laminated package (two polyethylene layers covered with a layer of aluminium foil) containing a nitrogen atmosphere and samples were analyzed for impurity content at the time of packaging and after 7 days of storage at 0-5° C., using high-performance liquid chromatography (HPLC). The results are tabulated below:\n6. The dried solid was packed in a double polyethylene bag with a silica desiccant pouch and the package was exposed to 0-5° C. and room temperature (RT) conditions for 25 days, then was analyzed by XRD and HPLC. The analytical data are given below:\nThe solid prepared was packaged in a double polyethylene bag with a silica desiccant and exposed to 0-5° C. and room temperature (RT) conditions for 27 days, and then samples were analyzed by XRD and HPLC. The data are given below:\nThe dried solid was packaged in a double polyethylene bag with a silica desiccant and exposed to 0-5° C. conditions for 16 days. A sample was then analyzed by XRD and HPLC, giving the following results:\nThe solid prepared was packaged in a double polyethylene bag and exposed at 0-5° C. and at room temperature (RT) for 20 days. Samples were then analyzed by XRD and by HPLC, giving the data below:\nThe solid products of Examples 6A and 6B, similarly packaged and stored under 0-5° C. and RT conditions for about 7 months, were analyzed and the data are given below: […]",
  "data": [
    {"smiles": "O=C(O[C@H]1CN2CCC1CC2)N1CCc2ccccc2[C@@H]1c1ccccc1", "note": "[Example 2, Amorphous Solifenacin Succinate]", "values": [
      {"measurement": "HSI (highest single impurity)", "setting": "7th day of storage at 0-5° C.", "result": "0.25 % of drug content"},
      {"measurement": "HSI (highest single impurity)", "setting": "initial, at the time of packaging", "result": "0.03 % of drug content"}
    ]}
  ]
}
